Each compound was assayed on C57 black 6 mice (assay: In vivo hair generation test, Experiment A (shaved C57 black 6 mice, topical)). Details: 30 µM topical in 20% propylene glycol, 3 applications over 5 days, after six weeks.
Description: Care was taken not to nick or cause abrasion to the underlaying dermal layers. The animals were in anagen growth phase, as indicated by the pinkish color of the skin. […] Hair growth was quantitated by the percent of shaved area covered by new hair growth during this time period.

| SMILES | hair regrowth in the shaved area |
| --- | --- |
| CCC(C)(C)C(=O)C(=O)N1CCC[C@H]1C(=O)OCCCc1cccnc1 [GPI 1046, 3-(3-pyridyl)-1-propyl (2s)-1-(3,3-dimethyl-1,2-dioxopentyl)-2-pyrrolidinecarboxylate] | essentially complete hair regrowth |

Each compound was assayed against FKBP12 (Homo sapiens, UniProt P62942) (assay: Ki test procedure: inhibition of peptidyl-prolyl isomerase (rotamase) activity, chymotrypsin-coupled assay). Details: not given.
FKBP12, sequence (P62942 whole entry, species assumed): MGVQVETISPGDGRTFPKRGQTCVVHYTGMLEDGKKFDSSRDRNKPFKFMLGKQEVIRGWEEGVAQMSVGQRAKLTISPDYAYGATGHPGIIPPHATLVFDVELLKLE
Format: biochemical
Description: The inhibition of the prolyl peptidyl cis-trans isomerase activity of FKBP may be measured as an indicator of this affinity.
Inhibition of the peptidyl-prolyl isomerase (rotamase) activity of the compounds used in the inventive methods and pharmaceutical compositions can be evaluated by known methods described in the literature (Harding et al., Nature, 1989, 341:758-760; Holt et al. J. Am. Chem. Soc., 115:9923-9938).
The cis-trans isomerization of an alanine-proline bond in a model substrate, N-succinyl-Ala-Ala-Pro-Phe-p-nitroanilide, is monitored spectrophotometrically in a chymotrypsin-coupled assay, which releases paranitroanilide from the trans form of the substrate. The inhibition of this reaction caused by the addition of different concentrations of inhibitor is determined, and the data is analyzed as a change in first-order rate constant as a function of inhibitor concentration to yield the apparent Ki values.
In a plastic cuvette are added […] of ice cold assay buffer (25 mM HEPES, pH 7.8, 100 mM NaCl), 10 mL of FKBP (2.5 mM in 10 mM Tris-Cl pH 7.5, 100 mM NaCl, 1 mM dithiothreitol), […] of chymotrypsin (50 mg/ml in 1 mM HCl) and […] of test compound at various concentrations in dimethyl sulfoxide. The reaction is initiated by the addition of 5 mL of substrate (succinyl-Ala-Phe-Pro-Phe-para-nitroanilide, 5 mg/mL in 2.35 mM LiCl in trifluoroethanol).
The absorbance at 390 nm versus time is monitored for 90 seconds using a spectrophotometer and the rate constants are determined from the absorbance versus time data files.

| SMILES | Ki [nM] |
| --- | --- |
| CCC(C)(C)C(=O)C(=O)N1CCCC1C(=O)SCCCC(c1ccc(F)cc1)c1ccc(F)cc1 (stereo not drawn) [Compound 46] | 757 |
| O=C(C(=O)N1CCC[C@H]1C(=O)SCCCc1cccnc1)C1CCCCC1 [Compound 35] | 62 |
| CC(C)(C)C(=O)C(=O)N1CCCCC1C(=O)SCCCc1ccccc1 (stereo not drawn) [Compound 29] | 59 |
| CC(C)(C)C(=O)C(=O)N1CCCCC1C(=O)SCCCCc1ccccc1 (stereo not drawn) [Compound 39] | 347 |
| O=C(C(=O)N1CCC[C@H]1C(=O)SCCc1ccccc1)C1CCCCC1 [Compound 12] | 442 |
| CCC(C)(C)C(=O)C(=O)N1CCCCC1C(=O)SCCCCc1ccccc1 (stereo not drawn) [Compound 59] | 962 |
| CCC(C)(C)C(=O)C(=O)N1CCC[C@H]1C(=O)SCCCc1ccccc1Cl [Compound 61] | 139 |
| CCC(C)(C)C(=O)C(=O)N1CCC[C@H]1C(=O)SCCCc1cccc(Cl)c1 [Compound 54] | 37 |
| COc1ccc(CCCSC(=O)C2CCCCN2C(=O)C(=O)c2ccccc2)cc1 (stereo not drawn) [Compound 43] | 259 |
| CCC(C)(C)C(=O)C(=O)N1CCCCC1C(=O)SCCCc1ccccc1 (stereo not drawn) [Compound 60] | 90 |
| CCC(C)(C)C(=O)C(=O)N1CCCCC1C(=O)SCCCc1cccc(F)c1 (stereo not drawn) [Compound 64] | 163 |
| CCC(C)(C)C(=O)C(=O)N1CCC[C@H]1C(=O)SCCCc1ccccc1F [Compound 57] | 57 |
| CCC(C)(C)C(=O)C(=O)N1CCC[C@H]1C(=O)SCCCc1cccc(F)c1 [Compound 58] | 79 |
| O=C(C(=O)N1CCC[C@H]1C(=O)SCCCCc1ccccc1)C1CCCCC1 [Compound 33] | 1700 |
| O=C(C(=O)N1CCCCC1C(=O)SCCc1ccccc1)c1ccccc1 (stereo not drawn) [Compound 14] | 313 |
| CCC(C)(C)C(=O)C(=O)N1CCC[C@H]1C(=O)SCCCc1cccc2ccccc12 [Compound 47] | 21 |

Same assay, conditions: apparent Ki, rotamase inhibition

| SMILES | Ki [nM] |
| --- | --- |
| CCC(C)(C)C(=O)C(=O)N1CCCCC1C(=O)SCCCc1ccc2ccccc2c1 [Compound 53, 3-(2-Naphthyl)propyl (2R, S) -1-(3,3-dimethyl-2-oxopentanoyl)-2-piperidinecarbothioate] | 261 |

Same assay, conditions: apparent Ki, rotamase inhibition; read-out: Ki

| SMILES | Ki [nM] |
| --- | --- |
| CCC(C)(C)C(=O)C(=O)N1CCC[C@H]1C(=O)SCc1csc2ccccc12 [Compound 11, (3-Thioindolyl) methyl (2S) -1-(3,3-dimethyl-1,2-dioxopentyl)-2-pyrrolidinecarbothioate] | 299 |

These compounds were tested on C57 black 6 mice (assay: In vivo hair generation test, Experiment B (shaved C57 Black 6 mice, topical, 14 days)). Details: one micromole per milliliter topical, three times per week, 14 days after initiation of treatment.
Procedure: Care was taken not to nick or cause abrasion to the underlying dermal layers. The animals were in anagen growth phase when shaved. […] The animals were treated three times per week, and hair growth was evaluated 14 days after initiation of treatment.

| SMILES | hair growth (Figure 5, relative hair growth index) |
| --- | --- |
| CCC(C)(C)C(=O)C(=O)N1CCC[C@H]1C(=O)SCCC(c1ccccc1)c1ccccc1 [GPI 1234] | dramatic hair growth |
| CCC(C)(C)C(=O)C(=O)N1CCCC[C@H]1C(=O)SCCC(c1ccccc1)c1ccccc1 [GPI 1511] | dramatic hair growth |
